Tested on: serum IgG antibody (protective mouse sera, patient sera D20, D24, H10)
Test: Epitope mapping ELISA of PIN-bound PrtR27 overlapping peptides with human and mouse antisera
Format: binding
Settings: PIN-bound overlapping 13 mer peptides, antisera diluted 1:1000, O.D. 450 nm
Text: FIG. 6: Serum IgG antibody responses assessed by ELISA to Porphyromonas gingivalis PrtR-27 overlapping peptides (SEQ ID NOs:13-24, 33, and 25-32, respectively, from origin). Twenty one PIN-bound peptides were probed with normal mouse sera (▪), protective mouse sera (□), normal human serum (▪), patient D24 sera (▪), patient H10 sera (▪) and patient D20 sera (▪). ELISAs were developed as per Example 1.
Twenty overlapping 13 mer peptides (overlay by 6 and offset by 7 residues) corresponding to the N-terminal 148 residues of the PrtR27 were synthesised by Chiron Technologies (Melbourne, Australia) using the multipin peptide synthesis system. The sequence of the N-terminal 148 residues of the PrtR27 adhesin is as follows: • […] (SEQ ID NO: 12). The overlapping peptides synthesised were: • […] (SEQ ID NO:13) • […] (SEQ ID NO:14) • […] (SEQ ID NO:15) • […] (SEQ ID NO:16) • […] (SEQ ID NO:17) • […] (SEQ ID NO:18) • […] (SEQ ID NO:19) • […] (SEQ ID NO:20) • […] (SEQ ID NO:21) • […] (SEQ ID NO:22) • […] (SEQ ID NO:23) • […] (SEQ ID NO:24) • […] (SEQ ID NO:25) • […] (SEQ ID NO:26) • […] (SEQ ID NO:27) • […] (SEQ ID NO:28) • […] (SEQ ID NO:29) • […] (SEQ ID NO:30) • […] (SEQ ID NO:31) • […] (SEQ ID NO:32).
Epitope mapping of the pin-bound peptides was carried out by ELISA as per Chiron Technologies instructions using the human and mouse proteinase antisera at a dilution of 1:1000 in 1% w/v non-fat skim milk powder in 0.1M phosphate buffered saline, pH 7.4, containing 0.1% v/v Tween 20. The bound antibody was detected by incubating the peptide-PINS with 0.4 mM 3,3′,5,5′-tetramethylbenzidine in 0.1M sodium acetate/citric acid buffer containing 0.004% v/v H2O2. Colour development was stopped by the addition of 2M H2SO4. Optical density (O.D.) was measured at 450 nm using a BioRad microplate reader model 450.

Sequence | Antibody binding of PrtR27 regions in ELISA (FIG. 6)
RYDDFTFEAGKKYTFTMRRAGMGDGTD (listed as Porphyromonas gingivalis) [EP5] | bind antibody
LYSANFESLIPANADPVVTTQNIIVTG (listed as Porphyromonas gingivalis) [EP2] | bind antibody
TNPEPASGKMWIAGDGGNQP (listed as Porphyromonas gingivalis) [EP4] | bind antibody
FLLDADHNTFGSVIPATGPLFTGTASS (listed as Porphyromonas gingivalis) [EP1] | bind antibody

Source: US6962706B1, “Synthetic peptides containing protective epitopes for the treatment and prevention of periodontitis associated with porphyromonas gingivalis” (The University of Melbourne, priority 1999, dated 2005)
